Data: patent US20240262845A1, “PYRIDINIUM SALTS, METHODS OF MAKING, AND METHODS OF USE” (UNIVERSITY OF WYOMING, priority 2023, published 2024)
Structures can show the parent of a compound that is named as a salt.

Molecular target: T1, lysozyme (Gallus gallus, UniProt P00698)
T1 construct: Lysozyme (from chicken egg white, >40,000 units/mg of protein); purchased Sigma Aldrich; host or cells: chicken egg white
Test: Photochemical labeling of lysozyme with pyridinium salts (General Procedure B, LC/MS)
Assay type: biochemical, chicken
Procedure: General Procedure B: Photochemical Irradiation of Peptides and Proteins: To a 2 mL Pyrex LC/MS vial (Thermo model #03-391-39) were sequentially added solutions containing the desired biomolecule, glutathione (GSH), pyridinium salt, and ammonium acetate (NH4OAc). The resulting solution was diluted to a final volume of 500 μL and then sparged using nitrogen for a minimum of 30 minutes prior to irradiation. The actively sparging solution was then placed in an EvoluChem™ PhotoRedOx Box photoreactor that was equipped with a Kessil, PR160 427 nm LED Lamp and was then irradiated (100% lamp intensity) for the designated time at room temperature while maintaining active sparging. The resultant reaction mixture was then analyzed directly by LC/MS. Analysis of labeling outcomes using LC/MS was performed either by extracted ion chromatogram intensities (method A) or by integrating the area under the peaks associated with peptide content (method B). These values were totaled, and estimated percentages were assigned according to relative intensities of peaks or ion counts.
Labeling of Lysozyme with Pyridinium Salt 2a (Lysozyme-2a Conjugate). Labeling of lysozyme (14.3 kDa) with the pyridinium salt 2a was performed by following general procedure B using the following solutions: lysozyme (27 μL, 182 μM, 10 μM final concentration), pyridinium salt 2a (200 μL, 500 μM, 200 μM final concentration), NH4OAc (100 μL, 100 mM, pH=6.9, 20 mM final concentration), glutathione (15 μL, 10 mM, 300 μM final concentration), and water (158 μL) with a 100% intensity irradiation time of 60 minutes. The reaction mixture was analyzed directly by LC/MS using method A and was estimated to have proceeded in >95% conversion and a 10.9:1 mono:di labeled ratio and 10% glutathionylation of all unlabeled and labeled protein content was observed.
Labeling of Lysozyme with Pyridinium Salt 2b (Lysozyme-2b Conjugate). Labeling of lysozyme (14.3 kDa) with the pyridinium salt 2b was performed by following general procedure Busing the following solutions: lysozyme (19 μL, 262 μM, […]), 2b (181 μL, 554 μM, 200 μM final concentration), NH4OAc (50 μL, 200 mM, pH=6.9, 20 mM final concentration), glutathione (50 μL, 3 mM, 300 μM final concentration), and water (200 μL) with a 100% intensity irradiation time of 10 minutes. The reaction mixture was analyzed directly by LC/MS using method A and was estimated to have proceeded with 83% conversion. […]
Labeling of Lysozyme with Pyridinium Salt 2c (Lysozyme-2c Conjugate). […] The reaction mixture was analyzed directly by LC/MS using method A and was estimated to have proceeded with 85% conversion and a 3.7:1 mono:di labeled ratio and 10% glutathionylation of all protein content was observed. […]

T1 sequence (P00698 19-147): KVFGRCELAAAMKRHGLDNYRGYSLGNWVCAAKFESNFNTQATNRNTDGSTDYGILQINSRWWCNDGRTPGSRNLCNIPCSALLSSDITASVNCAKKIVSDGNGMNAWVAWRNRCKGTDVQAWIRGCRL

Row | labeling rate compared to pyridinium salt 2a (lysozyme labeling) | SMILES | Modified Trp (trypsin digest, MS-MS)
1 |  | COC(=O)N(C)[n+]1c(C)cc(-c2ccc3cc(OC)ccc3c2)cc1C [pyridinium salt 2a, 1-((methoxycarbonyl)(methyl)amino)-4-(6-methoxynapthalen-2-yl)-2,6-dimethylpyridin-1-ium tetrafluoroborate] | Trp-62
2 | much faster rate | COc1ccc2cc(-c3cc(C)[n+](N(C)C(=O)OCCCCC[C@H]4SC[C@H]5NC(=O)N[C@H]54)c(C)c3)ccc2c1 (stereo in doubt) [pyridinium salt 2b, 4-(6-methoxynaphthalen-2-yl)-2,6-dimethyl-1-(methyl(((5-((3aR,4R,6aS)-2-oxohexahydro-1H-thieno[3,4-d]imidazol-4-yl)pentyl)oxy)carbonyl)amino)pyridin-1-ium tetrafluoroborate] | 
